Measurements reported in the PolyMetriX glass transition set.
± gives the standard deviation of the reports.

SMILES | glass transition temperature [°C]
*CC(*)O (repeat unit) [Poly(vinyl alcohol)] | 79.67 ± 32
*CCOC(=O)Nc1ccc(C)c(NC(=O)OCCOc2cc([N+](=O)[O-])ccc2/N=N/c2cn(*)c3ccccc23)c1 (repeat unit) | 150.00
*Oc1ccc(C(CC)c2ccc(OC(*)=O)cc2)cc1 (repeat unit) | 128.00
*OP(=O)(Oc1ccc(Br)cc1)OC(CCl)COc1ccc(S(=O)(=O)c2ccc(OCC(*)CCl)cc2)cc1 (repeat unit) | 58.00
*O[Si](*)(C)CCCCC1COC(=O)O1 (repeat unit) | -23.4
*OC(C)COC(C)COC(=O)c1ccc(C(*)=O)cc1 (repeat unit) | 37.00
*CCCCOC(=O)COCC(=O)O* (repeat unit) | -23.00
*Oc1ccc(CC(NC(=O)CCc2ccc(OC(=O)CCCCCCC(*)=O)cc2)C(=O)OCCOCCOCC)cc1 (repeat unit) | 6.00
*CC(*)(C)CCC (repeat unit) | 27.00
*C1C(*)C2CC1C1C=CCC12 (repeat unit) | 145.00
*CC(O)CO* (repeat unit) | 17.00
*CC1CCC(COC(=O)O*)CC1 (repeat unit) | 38.70
*CCCCCC(*)CC (repeat unit) | -73.00
*OP(=O)(Oc1ccc(C)cc1)Oc1c(Br)cc(C(c2cc(Br)c(*)c(Br)c2)(C(F)(F)F)C(F)(F)F)cc1Br (repeat unit) | 146.00
*CC(C)(/C=C(/*)C)C(=O)OC (repeat unit) | 24.00
*OP(=O)(Oc1ccccc1)Oc1c(C)cc(S(=O)(=O)c2cc(C)c(*)c(C)c2)cc1C (repeat unit) | 142.00
*CC(*)CCCCCCCCCC (repeat unit) | -6.00
*/C=C(/*)c1ccccc1C(F)(F)F (repeat unit) | 130.00
*CCN(*)C(=O)CC (repeat unit) | 60.00

SMILES | glass transition temperature [°C]
*Oc1ccc(C(C)(C)c2ccc(Oc3ccc(C(=O)c4ccc(*)cc4)cc3)cc2)cc1 (repeat unit) | 155.00
*Oc1c(Cl)cc(C(C)(C)c2cc(Cl)c(OC(=O)CCCCC(*)=O)c(Cl)c2)cc1Cl (repeat unit) | 100.00
*CCCCCCOc1ccc(C(=O)N(C(=O)c2ccc(O*)cc2)c2ccc(Oc3ccccc3)cc2)cc1 (repeat unit) | 78.00
*Nc1ccc(NC(=O)Cc2cc(CC(*)=O)c(C)cc2C)cc1 (repeat unit) | 208.00
*c1ccc2c(c1)C(=O)N(c1ccc3c(c1)Cc1cc(N4C(=O)c5ccc(C(*)(C(F)(F)F)C(F)(F)F)cc5C4=O)ccc1-3)C2=O (repeat unit) | 394.00
*CC(*)(C)C(=O)OCCCCCCCCCCCCCCCCCC (repeat unit) | -100.00
*OC1CCC(OC(=O)OCCCCCOC(*)=O)CC1 (repeat unit) | -5.00
*C(=O)c1ccc2c(c1)C(=O)N(c1ccc(Sc3ccc(N4C(=O)c5ccc(*)cc5C4=O)cc3)cc1)C2=O (repeat unit) | 276.00
*CCN(CCOC(=O)Nc1ccc(C)c(NC(=O)O*)c1)c1ccc(/N=N/c2ccc(/C=C/c3nc4ccc([N+](=O)[O-])cc4n3CC)cc2)cc1 (repeat unit) | 171.00
*CC(CCl)(CCl)CO* (repeat unit) [Poly(oxy-2,2-dichloromethyltrimethylene) ] | -8 ± 10
*c1ccc(Oc2ccc(N3C(=O)c4ccc(C(=O)c5ccc6c(c5)C(=O)N(c5ncc(*)s5)C6=O)cc4C3=O)cc2)cc1 (repeat unit) | 320.20
*c1ccc(-c2cc(-c3ccc(-c4ccccc4)cc3)cc(-c3ccc(N4C(=O)c5ccc(NC(=O)Nc6ccc(Oc7ccccc7-c7ccccc7Oc7ccc(NC(=O)Nc8ccc9c(c8)C(=O)N(*)C9=O)cc7)cc6)cc5C4=O)cc3)n2)cc1 (repeat unit) | 249.00
*c1cccc(OCCCCCCOc2cccc(N3C(=O)c4ccc(-c5cccc6c5C(=O)N(*)C6=O)cc4C3=O)c2)c1 (repeat unit) | 157.00
*c1c(C)cc(C)c(N2C(=O)c3ccc(Oc4ccc(Oc5ccc6c(c5)C(=O)N(*)C6=O)cc4)cc3C2=O)c1C (repeat unit) | 345.00
*CC(*)(C)C(=O)Oc1ccc(OCc2ccccc2)cc1 (repeat unit) | 95.30
*CC(CC(C)C)S(*)(=O)=O (repeat unit) | 23.00
*Nc1cc(NC(=O)Nc2ccc(CCc3ccccc3NC(*)=O)cc2)ccc1C (repeat unit) | 227.00
*CC(*)c1ccc(O)c(OC)c1 (repeat unit) | 142.00

The next lines start with the values.

glass transition temperature [°C] | SMILES
-7.00 | *CCCCCCCCCCCCCCC(=O)N* (repeat unit)
236.00 | *C(=O)c1ccc2c(c1)C(=O)N(c1ccc(Oc3ccccc3Oc3ccc(N4C(=O)c5ccc(*)cc5C4=O)cc3C(F)(F)F)c(C(F)(F)F)c1)C2=O (repeat unit)
50.00 | *CCCCCCCCCCOC(=O)c1ccc(-c2ccc(-c3ccc(C(=O)O*)cc3)cc2)cc1 (repeat unit)
74.00 | *c1ccc(C(=O)OCCCCCCCCCCOc2ccc(/C=C3\CCCC/C(=C\c4ccc(OCCCCCCCCCCOC(=O)c5ccc(-c6nnc(*)o6)cc5)cc4)C3=O)cc2)cc1 (repeat unit)
47.00 | *CC(*)(CC(=O)OCCCCl)C(=O)OCCCCl (repeat unit)
249.00 | *Oc1ccc(C(=O)Nc2ccc(Br)cc2-c2ccc(NC(=O)c3ccc(*)cc3)cc2)cc1 (repeat unit)
341.00 | *C(=O)Nc1ccc(NC(=O)c2ccc3c(c2)C(=O)N(c2cccc(N4C(=O)c5ccc(*)cc5C4=O)c2)C3=O)cc1 (repeat unit)
220.00 | *Oc1ccc(Oc2ccc(C(=O)Nc3ccc(Oc4ccc(S(=O)(=O)c5ccc(Oc6ccc(NC(=O)c7ccc(*)cc7)cc6)cc5)cc4)cc3)cc2)cc1 (repeat unit)
44.50 | *CC(OCC(C)C)C(C(=O)OC)C(*)C(=O)OC (repeat unit)
74.30 | *O[Si](*)(C)CCCCCCCCCCC(=O)Oc1ccc(C(=O)Oc2ccc(-c3ccc(OC(=O)c4ccc(OCC(C)CC)cc4)cc3)cc2)cc1 (repeat unit)
113.00 | *CC(c1ccccc1)C1C(=O)N(CCCCNC(=O)C(F)(F)C(F)(F)C(F)(F)C(F)(F)C(F)(F)C(F)(F)C(F)(F)F)C(=O)C1* (repeat unit)
205.00 | *c1ccc(Oc2ccc(C(C)(C)c3ccc(Oc4ccc(-c5nnc(*)n5-c5ccc(C)cc5)cc4)cc3)cc2)cc1 (repeat unit)
162.00 | *Oc1ccc(/C=N/N=C/c2ccc(Oc3ccc(C(c4ccc(*)cc4)(C(F)(F)F)C(F)(F)F)cc3)cc2)cc1 (repeat unit)
130.00 | *CCCCCCCCOc1ccc(/C=C/c2cc(OCCCCCCCC)c(/C=C/c3ccc(O*)cc3)cc2OCCCCCCCC)cc1 (repeat unit)
230.00 | *Nc1ccc(Cc2ccc(NC(=O)/C=C/c3ccc(/C=C/C(*)=O)cc3)cc2)cc1 (repeat unit)
249.00 | *=Nc1ccc(C(C)(C)c2ccc(C(C)(C)c3ccc(/N=C4/OC(=O)c5ccc(Oc6ccc7c(c6)C(=O)OC7=*)cc54)cc3)cc2)cc1 (repeat unit)
206.20 | *CC(*)c1cc[n+](CCCCCCCC)cc1 (repeat unit)

glass transition temperature [°C] | SMILES
210.00 | *Oc1ccc(OC(=O)/C=C/c2ccc(/C=C/C(*)=O)cc2)cc1 (repeat unit)
320.80 | *c1ccc(Oc2ccc3ccc(Oc4ccc(-n5c(=O)c6cc7c(=O)n(*)c(=O)c7cc6c5=O)cc4)cc3c2)cc1 (repeat unit)
1.00 | *c1ccc(-c2ccc(-c3ccc(-c4ccc([Si](*)(CCCC)CCCC)s4)s3)s2)s1 (repeat unit)
31.00 | *CCCCCCCCCOC(=O)CCC(=O)O* (repeat unit)
272.00 | *Nc1cccc(/C=C/c2ccc(NC(=O)c3cccc(C(*)=O)c3)cc2)c1 (repeat unit)
180.00 | *C(=O)c1ccc(Oc2c(C)cc(-c3cc(C)c(Oc4ccc(C(=O)c5ccc6nc(*)ccc6c5)cc4)c(C)c3)cc2C)cc1 (repeat unit)
110.00 | *Oc1ccc(-c2ccc(Oc3c(F)c(F)c(COC(c4cccc(C(OCc5c(F)c(F)c(*)c(F)c5F)(C(F)(F)F)C(F)(F)F)c4)(C(F)(F)F)C(F)(F)F)c(F)c3F)cc2)cc1 (repeat unit)
67.00 | *CC(*)C(=O)Oc1ccc(C(=O)OC)cc1 (repeat unit)
154.00 | *c1ccc(C(=O)NCCCCCCCCCCCCNC(=O)c2ccc(-c3nc4ccccc4nc3*)cc2)cc1 (repeat unit)
214.00 | *Oc1ccc(S(=O)(=O)c2ccc(Oc3ccc(-c4ccc(-c5ccc(*)c(C(F)(F)F)c5)cc4)cc3C(F)(F)F)cc2)cc1 (repeat unit)
151.00 | *CCCCCOc1ccc(-c2ccc(O*)c3ccccc23)c2ccccc12 (repeat unit)
202.00 | *c1ccc(Cc2ccc(-n3nccc3-c3ccc(-c4ccnn4*)cc3)cc2)cc1 (repeat unit)
-5.00 | *c1nc(C(F)(F)C(F)(F)C(F)(F)F)nc(C(F)(F)C(F)(F)C(F)(F)C(F)(F)C(F)(F)C(*)(F)F)n1 (repeat unit)
138.00 | *Oc1ccc(-c2ccc(OC(=O)c3cc(CCCCC)cc(C(*)=O)c3)cc2)cc1 (repeat unit)
304.00 | *c1ccc(-c2nc3cc(Oc4ccc5nc(-c6ccccc6)c(*)nc5c4)ccc3nc2-c2ccccc2)cc1 (repeat unit)
279.00 | *Oc1ccc(NC(=O)c2cc(C(=O)Nc3ccc(*)cc3)cc(S(=O)(=O)c3ccccc3)c2)cc1 (repeat unit)
153.00 | *CCCC(C)CNC(=O)c1ccc(C(=O)N*)cc1 (repeat unit)
